# Results from patent US20030083336A1, “Phenylpiperazinyl derivatives” (H. Lundbeck A/S, priority 1999, published 2003).
# Legend:
# [1] = molecular target: T1, human cloned dopamine D4.2 receptors (Homo sapiens, UniProt P21917, DEL265-296); assay: Inhibition of the binding of 3H-YM-09151-2 to human dopamine D4 receptors; details: [3H]YM-09151-2 0.06 nM, membranes of CHO-cells; read-out: D4-bind. IC50
# T1 construct: expressed in transfected cells; host or cells: CHO cells
# T1 sequence (P21917 with tags, fused parts or gaps DEL265-296): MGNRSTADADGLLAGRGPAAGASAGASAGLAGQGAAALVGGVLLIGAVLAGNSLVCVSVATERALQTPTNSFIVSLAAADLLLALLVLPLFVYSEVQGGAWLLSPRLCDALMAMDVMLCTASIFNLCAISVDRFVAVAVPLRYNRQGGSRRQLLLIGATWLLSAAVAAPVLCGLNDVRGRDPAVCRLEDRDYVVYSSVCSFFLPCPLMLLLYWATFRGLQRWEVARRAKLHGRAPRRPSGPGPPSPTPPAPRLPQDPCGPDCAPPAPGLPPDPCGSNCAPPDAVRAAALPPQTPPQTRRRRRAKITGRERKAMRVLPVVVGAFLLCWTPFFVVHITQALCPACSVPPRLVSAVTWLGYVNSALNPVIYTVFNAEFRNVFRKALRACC
# Description: Inhibition of the Binding of ^3H-YM-09151-2 to Human Dopamine D4 Receptors
# By this method the inhibition by drugs of the binding of [^3H]YM-09151-2 (0.06 nM) to membranes of human cloned dopamine D4.2 receptors expressed in CHO-cells is determined in vitro. Method modified from NEN Life Science Products, Inc., technical data certificate PC2533-10/96. The results are given in the following Table 1 as IC50-values or as percent inhibition of the binding of ^3H-YM-09151 -2 at the concentration of the test compound indicated.
# [2] = molecular target: T2, human cloned dopamine D3 receptors (Homo sapiens, UniProt P35462); assay: Inhibition of the binding of [3H]-Spiperone to human D3 receptors; details: [3H]Spiperone 0.3 nM, membranes of CHO-cells; read-out: D3-bind. IC50
# T2 construct: expressed in transfected cells; host or cells: CHO cells
# Description: Inhibition of the Binding of [^3H]-Spiperone to Human D3 Receptors
# By this method the inhibition by drugs of the binding [^3H]Spiperone (0.3 nM) to membranes of human cloned dopamine D3 receptors expressed in CHO-cells is determined in vitro. Method modified from R. G. MacKenzie et al. Eur. J. Pharm.-Mol. Pharm. Sec. 1994, 266, 79-85. The results are given in the following Table 1 as IC50-values or as percent inhibition of the binding of ^3H-Spiperone at the concentration of the test compound indicated.
# D4 receptor = molecular target: T3, D4 receptor (Homo sapiens, UniProt P21917); details: various in vitro efficacy assays; cited from earlier work
# T3 sequence (P21917 1-419): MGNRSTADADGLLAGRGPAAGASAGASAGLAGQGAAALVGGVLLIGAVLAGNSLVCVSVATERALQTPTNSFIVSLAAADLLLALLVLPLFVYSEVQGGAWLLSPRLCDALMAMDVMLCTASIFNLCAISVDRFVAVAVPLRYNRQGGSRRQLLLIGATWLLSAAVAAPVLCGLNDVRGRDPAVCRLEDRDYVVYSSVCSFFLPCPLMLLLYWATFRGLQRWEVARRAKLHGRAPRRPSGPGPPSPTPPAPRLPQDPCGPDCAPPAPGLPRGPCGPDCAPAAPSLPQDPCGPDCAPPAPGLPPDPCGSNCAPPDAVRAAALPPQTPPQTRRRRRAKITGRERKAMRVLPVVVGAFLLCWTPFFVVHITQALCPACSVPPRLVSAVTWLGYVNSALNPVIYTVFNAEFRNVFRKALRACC
# T2 sequence (P35462 whole entry): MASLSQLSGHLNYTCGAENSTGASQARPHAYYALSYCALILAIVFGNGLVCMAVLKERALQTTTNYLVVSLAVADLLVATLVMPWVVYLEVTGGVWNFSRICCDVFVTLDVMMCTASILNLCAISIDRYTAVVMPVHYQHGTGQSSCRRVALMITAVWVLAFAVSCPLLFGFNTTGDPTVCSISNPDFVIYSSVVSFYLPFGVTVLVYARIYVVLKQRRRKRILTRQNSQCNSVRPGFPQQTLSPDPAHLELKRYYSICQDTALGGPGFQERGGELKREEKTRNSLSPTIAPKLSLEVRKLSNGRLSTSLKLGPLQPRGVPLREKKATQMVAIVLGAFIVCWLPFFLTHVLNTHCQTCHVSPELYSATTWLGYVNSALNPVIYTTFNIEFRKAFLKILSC
melting point,IC50 [1],IC50 [2],SMILES,Functional activity at D4 receptor (literature) (D4 receptor)
111 to 113 °C,15 nM,130 nM,"Cc1c(N2CCOCC2)cccc1N1CCN(CCCCc2c[nH]c3ccccc23)CC1 [Compound 1c, 1-[2-methyl-3-(morpholin-4-yl)phenyl]-4-[4-(1H-indol-3-yl)butyl]piperazine]",
112 to 114 °C,14 nM,63 nM,"Cc1c(N2CCOCC2)cccc1N1CCN(CCCCc2c[nH]c3ccc(F)cc23)CC1 [Compound 1e, 1-[2-metlyl-3-(morpholin-4-yl)phenyl]-4-[4-(5-fluoro-1H-indol-3-yl)butyl]piperazine]",
,,,CC(C)Oc1cccnc1N(C)C1CCN(Cc2ccccc2)CC1 [Compound U-101958],partial D4 receptor agonists
